System: Episkin™ reconstructed epidermides
Test: Diffusion of radioactively labelled caffeine through Episkin reconstructed epidermides (barrier function)
Format: cell-based
Details: 200 μg/ml; for Reduction of the passage of caffeine after 2 hours of application (in %): relative to the control
Procedure: Hydroxyapatite in the form of particles sold under the name Hydroxysomes™ by LSC and their combination with a calcium D-pantetheine sulfonate sold by SOGO Pharmaceutical were tested on an in vitro model to evaluate the overall effect of this combination on the barrier function of the skin.
This test consists in applying the test active agents to Episkin™ reconstructed epidermides differentiated on D13, and then, after incubation for 5 days, in applying radioactively labelled caffeine and monitoring the diffusion of the labelled caffeine through the reconstructed epidermides.
Vitamin C, which is known to improve the epidermal barrier function via stimulation of the synthesis of the epidermal lipids, is used as a reference molecule for this test (positive control). Water is used as a negative control.
Differentiated (D13) Episkin™ epidermides were placed in 12-well plates containing 2 ml of differentiation medium and were precultured at 37° C. and 5% CO2 for 24 hours. After incubation, the epidermides were treated topically with 100 μl of each concentration of test product or of the reference product (vitamin C).
Control epidermides were treated topically with 100 μl of water.
The epidermides were then incubated at 37° C. and 5% CO2 for 5 days, with changing of the medium and new application of the active agents after 2 days.
The treatments were performed in quintuplicate (n=5).
Four epidermides were used for the passage of caffeine and one “control” epidermis was kept to perform histology at the end of the experiment.
After treatment with the test active agents and the reference product (vitamin C), the epidermides were washed and the caffeine was applied to the surface of each epidermis at a rate of 100 μl containing 2 μCi/ml (0.04 mM) of radioactive caffeine and 0.35 mM of cold caffeine, which corresponds to about 500 000 cpm total.
The % activity of caffeine after 2 hours of application was measured.

O=C1O[C@H]([C@@H](O)CO)C(O)=C1O [Vitamin C]
activity at 200 µg/mL (topical 5 days, caffeine after 2 hours of application, read-out: % activity relative to the control): 59%
Reduction of the passage of caffeine after 2 hours of application (in %): −41%
Reduction of the passage of caffeine after 2 hours of application (in %) (listed as vitamin C): −41%

Source: US20080160088A1, “COMPOSITION CONTAINING HYDROXYAPATITE AND A CALCIUM SALT” (L'OREAL, priority 2006, published 2008)
